Assay results: patent publication US8729125B2, “Ophthalmic compositions and methods for treating eyes” (Allergan, Inc., priority 2004, dated 2014)
Structures can show the parent of a compound that is named as a salt. Where two headings read alike, the source gives them in different places.

Experiments:
[1] = Component compatibility with stabilized chlorine dioxide preservative; format: physicochemical
Procedure: A composition including betaine and stabilized chlorine dioxide, as a preservative, was tested for component compatibility. […] Thus, betaine is not useful with certain preservatives, such as stabilized chlorine dioxide. However, betaine may advantageously be employed as a compatible solute in ophthalmic compositions which use other preservative systems, or which are free of preservatives, for example, in single or unit-dose applications.

[2] = tested on: phosphorylated c-jun N-terminal kinases (p-JNK1 and p-JNK2); test: Western blot of phosphorylated JNK1 and JNK2 in primary corneal epithelial cultures under hyperosmolar stress; format: cell-based, human; conditions: 2 mM
[3] = tested on: corneal epithelial cells; test: Trans-epithelial electrical resistance (TEER) of layered air-lift corneal epithelial cultures exposed to hypertonic fluid; format: cell-based, rabbit; conditions: for Osmoprotective benefit on TEER relative to hypertonic control, in words: 2 mM, 400 mOsmols/kg, 22 hours; for Concentration dependent effect on % TEER relative to the isotonic control: different concentrations, TEER measured 0 to 24 hours, FIG. 6
Excerpt: In this experiment, corneal epithelial cells were isolated from the rabbit eye and grown under conditions so that they differentiate into a layered “air-lift” culture that includes basal, wing, and squamous cells. As they grow and differentiate, these cultures developed tight junctions between cells that provide the basis for a trans-epithelial electrical resistance (TEER) across the cell layers between the apical and basal surfaces. The TEER value is a sensitive measure of cell growth, differentiation and health.
After 5 days in culture during which the layered structure forms, different culture wells were exposed to hypertonic fluid (400 mOsmols/kg) with or without addition of one of 6 candidate compatible solutes at a low concentration (2 mM). The TEER was then measured after 22 hours of exposure. The TEER value was expressed as a percentage of the TEER value obtained from a similar culture under isotonic (300 mOsmol/kg) conditions.
Example 1 is repeated except that different concentrations of each of the candidate materials are used, and the TEER is measured at various times from 0 to 24 hours.
As in Example 1, the TEER variable is represented as % TEER relative to the isotonic control.
Example 4 was repeated except that compositions including combinations of compatible solutes were used. Compositions including only glycerol as a compatible solute were also tested.

[4] = tested on: JNK; test: Beadlyte Cell Signaling Assay, phosphorylated:total JNK; format: cell-based, human; conditions: 2 mM, Beadlyte method, FIG. 3
Procedure: (§1) A series of primary sub-confluent corneal epithelial cultures (grown for 12 to 14 days, about 4−5×10^5 cells/well) were washed three times with […] buffered saline (PBS) and switched to an Earle's Balanced Salt Solution (EBSS, 300 mOsmols/kg) for 24 hours before treatment. The corneal epithelial cells were cultured for 1 hour in an equal volume (2.0 mL/well) of EBSS media or 400 mOsmols/kg media by adding 53 mM NaCl or sucrose, with either L-carnitine inner salt, betaine hydrochloride, erythritol, or xylitol (all at a concentration of 2 mM) that were pre-added 60 minutes before adding NaCl or sucrose. Samples without these osmoprotectants were also prepared and tested.
(§2) The adherent cells were lysed in Beadlyte® Buffer B (included in the Beadlyte® Cell Signaling buffer kit, Upstate Biotechnology, Lake Placid, N.Y.) containing an EDTA-free protease inhibitor cocktail tablet (Roche Applied Science, Indianapolis, Ind.) for 15 minutes. The cell extracts were centrifuged at 12,000×g for 15 minutes at room temperature and the supernatants were stored at −80° C. until they were analyzed by Western blot analysis. The total protein concentrations of the cell extracts were determined using a Micro BCA protein assay kit (Pierce, Rockford, Ill.).
In another series of experiments, the Beadlyte® Cell Signaling Assay was used. This assay is a fluorescent bead-based sandwich immunoassay. Each sample (10 μg/25 μL) was pipetted into a well of a 96-well plate and incubated with 25 μL of diluted 5× beads coupled to phospho-JNK, phospho-ERK, phospho-p38 or total JNK, or total ERK, or total p38 specific capture antibodies overnight. […]
The beads were washed and mixed with biotinylated specific reporter antibodies for phospho-MAPK or total-MAPK, followed by streptavidin-phycoerythrin. The amount of total or phospho-MAPK was then quantified by the Luminex 100™ system (Luminex, Austin, Tex.). Fifty events per bead were read, and the data output obtained from the Bio-Plex Manager software were exported to Microsoft Excel® for further analysis. […]

[5] = tested on: ERK MAP Kinase; test: Beadlyte Cell Signaling Assay, phospho:total ERK MAP kinase; format: cell-based, human; conditions: 2 mM, Beadlyte method, FIG. 5
Procedure: as §1, §2
In another series of experiments, the Beadlyte® Cell Signaling Assay was used. This assay is a fluorescent bead-based sandwich immunoassay. […]

SMILES | Compatibility with stabilized chlorine dioxide (Purite) preservative in a composition [1] | Compatibility with stabilized chlorine dioxide (Purite) preservative in a composition ([1]; listed as betaine) | Levels of p-JNK1 and p-JNK2 (Western blot) in 300 mOsmols/kg cultures ([2]; 300 mOsmols/kg EBSS media) | JNK activation (levels of p-JNK1 and p-JNK2, Western blot intensity) compared to 400 mOsmols/kg media alone ([2]; pre-added 60 minutes, 1 hour in 400 mOsmols/kg media) | Osmoprotective benefit on TEER relative to hypertonic control, in words [3] | Concentration dependent effect on % TEER relative to the isotonic control [3] | Amount of phospho-total JNK relative to the hypertonic control [4] | Amount of ERK (phospho:total) relative to the hypertonic control [5]
C[N+](C)(C)CC(=O)O [Betaine, trimethyl glycine] | incompatible | not fully compatible | – | – | – | – | – | –
C[N+](C)(C)C[C@H](O)CC(=O)[O-] [Carnitine, L-carnitine inner salt] | – | – | less robust effect | definite decrease | produced the most benefit | dose-related response | reduced | –
OC[C@@H](O)[C@@H](O)CO [Erythritol] | – | – | – | – | best results among the polyols tested | dose-related response | reduced | reduced
O[C@H]1[C@H](O)[C@@H](O)[C@H](O)[C@@H](O)[C@H]1O [Myo-Inositol] | – | – | – | – | good results | – | – | –
OC[C@@H](O)[C@H](O)[C@@H](O)CO [Xylitol] | – | – | – | – | good results | – | reduced | reduced
